Here are results for 29 molecules from patent US9944666B2, “Compounds that are S1P modulating agents and/or ATX modulating agents” (BIOGEN MA INC., priority 2012, dated 2018).

As usually defined, the IC50 is the concentration that gives 50% inhibition. Low values mean greater potency, high ones weaker potency.

Molecules are shown by their SMILES.

This experiment deals with T1, Human ATX protein (Homo sapiens, UniProt Q13822).
T1 construct: made in house
The experiment is described as follows: ATX biochemical FRET assay with FS-3 substrate. The conditions noted are these: FS-3 2 μM, ATX 1.0 μg/mL, room temperature 2 hours, fluorescence 485/538 nm. The procedure, abridged:
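Purified human ATX (1.0 μg/mL final) preincubated with compound 30 min at room temperature in Tris pH 7.4 buffer with NaCl, KCl, CaCl2, MgCl2 and 1 mg/mL fatty acid-free BSA. FS-3 added to 2 μM final; 2 h at room temperature in the dark, fluorescence at ex 485/em 538 nm.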
Regarding `CC[C@H]1CC[C@@H](Oc2ccc3cc(CN4C5CCCC4CC(C(=O)O)C5)ccc3c2)CC1` (stereo partly drawn) [Example 83, 9-((6-((cis-4-ethylcyclohexyl)oxy)naphthalen-2-yl)methyl)-9-azabicyclo[3.3.]nonane-3-carboxylic acid], the IC50 was at most 500 nM. The value for `O=C(O)C1CC2CCCC(C1)N2Cc1ccc2c(C(F)(F)F)c(O[C@H]3CC[C@@H](C(F)(F)F)CC3)ccc2c1` (stereo partly drawn) [Example 84, 9-((5-(trifluoromethyl)-6-((cis-4-(trifluoromethyl)cyclohexyl)oxy)naphthalen-2-yl)methyl)-9-azabicyclo[3.3.1]nonane-3-carboxylic acid] was at most 100 nM; that for `O=C(O)C1CC(NCc2ccc3c(C(F)(F)F)c(O[C@H]4CC[C@@H](C(F)(F)F)CC4)ccc3c2)C12CCCCC2` (stereo partly drawn) [Example 85, 3-(((5-(trifluoromethyl)-6-((cis-4-(trifluoromethyl)cyclohexyl)oxy)naphthalene-2-yl)methyl)amino)spiro[3.5]nonane-1-carboxylic acid] was at most 500 nM; that for `CC(c1ccc2c(C(F)(F)F)c(O[C@H]3CC[C@@H](C(F)(F)F)CC3)ccc2c1)N1C2CCCC1CC(C(=O)O)C2` (some centres unmarked) [Example 88] was at most 100 nM.

`CC(c1ccc2c(C(F)(F)F)c(O[C@H]3CC[C@@H](C)CC3)ccc2c1)N1C2CCCC1CC(C(=O)O)C2` (stereo partly drawn) [Example 93, 9-(1-(6-((cis-4-Methylcyclohexyl)oxy)-5-(trifluoromethyl)naphthalen-2-yl)ethyl)-9-azabicyclo[3.3.1]nonane-3-carboxylic acid] displayed an IC50 of at most 100 nM. In turn, `C[C@H]1CC[C@@H](Oc2ccc3cc(CN4C5CCC4CC(C(=O)O)C5)ccc3c2C(F)(F)F)CC1` (stereo partly drawn) [Example 96, 8-((6-((cis-4-Methylcyclohexyl)oxy)-5-(trifluoromethyl)naphthalen-2-yl)methyl)-8-azabicyclo[3.2.1]octane-3-carboxylic acid] returned a 50% inhibitory concentration (IC50) of at most 500 nM. `C[C@H]1CC[C@@H](Oc2ccc3cc(CN4C5CCCC4CC(C(=O)O)C5)ccc3c2C(F)(F)F)CC1` (stereo partly drawn) [Example 97, 9-((6-((cis-4-Methylcyclohexyl)oxy)-5-(trifluoromethyl)naphthalen-2-yl)methyl)-9-azabicyclo[3.3.1]nonane-3-carboxylic acid] came in with an IC50 of at most 100 nM. In turn, `CCC(c1ccc2c(C(F)F)c(O[C@H]3CC[C@@H](C)CC3)ccc2c1)N1C2CCC1CC(C(=O)O)C2` (stereo partly drawn) [Example 99, 8-(1-(5-(difluoromethyl)-6-((cis-4-methylcyclohexyl)oxy)naphthalen-2-yl)propyl)-8-azabicyclo[3.2.1]octane-3-carboxylic acid] displayed an IC50 of at most 100 nM. The molecule `O=C(O)C1CC2CCCC(C1)N2Cc1ccc2c(C(F)F)c(O[C@H]3CC[C@@H](C(F)(F)F)CC3)ccc2c1` (stereo partly drawn) [Example 100, 9-((5-(difluoromethyl)-6-((cis-4-(trifluoromethyl)cyclohexyl)oxy)naphthalene-2-yl)methyl)-9-azabicyclo[3.3.1]nonane-3-carboxylic acid] had an IC50 of at most 100 nM. The molecule `O=C(O)C1CC2CCCC(C1)N2Cc1ccc2c(C(F)(F)F)c(O[C@H]3CC[C@@H](C(F)(F)F)CC3)ccc2n1` (stereo partly drawn) [Example 101, 9-((5-(trifluoromethyl)-6-((cis-4-(trifluoromethyl)cyclohexyl)oxy)quinolin-2-yl)methyl)-9-azabicyclo[3.3.1]nonane-3-carboxylic acid] gave an IC50 of at most 100 nM. The value for `CC(c1ccc2c(C(F)(F)F)c(O[C@H]3CC[C@@H](C(F)(F)F)CC3)ccc2n1)N1C2CCC1CC(C(=O)O)C2` (stereo partly drawn) [Example 102, 8-(1-(5-(trifluoromethyl)-6-((cis-4-(trifluoromethyl)cyclohexyl)oxy)quinolin-2-yl)ethyl)-8-azabicyclo[3.2.1]octane-3-carboxylic acid] was at most 100 nM. Turning to `C[C@H]1CC[C@@H](Oc2ccc3cc(C(=O)N4C5CCC4CC(C(=O)O)C5)ccc3c2C(F)(F)F)CC1` (stereo partly drawn) [Example 104, 8-(6-((cis-4-Methylcyclohexyl)oxy)-5-(trifluoromethyl)-2-naphthoyl)-8-azabicyclo[3.2.1]octane-3-carboxylic acid], the IC50 is at most 100 nM.

As to `O=C(O)C1CC2CCCC(C1)N2C(=O)c1ccc2c(C(F)(F)F)c(O[C@H]3CC[C@@H](C(F)(F)F)CC3)ccc2c1` (stereo partly drawn) [Example 105, 9-(5-(trifluoromethyl)-6-((cis-4-(trifluoromethyl)cyclohexyl)oxy)-2-naphthoyl)-9-azabicyclo[3.3.1]nonane-3-carboxylic acid], the IC50 is at most 100 nM. The result for `O=C(O)C1CC2CCCC(C1)N2C(=O)Cc1ccc2c(C(F)(F)F)c(O[C@H]3CC[C@@H](C(F)(F)F)CC3)ccc2c1` (stereo partly drawn) [Example 106, 9-(2-(5-(trifluoromethyl)-6-((cis-4-(trifluoromethyl)cyclohexyl)oxy)naphthalene-2-yl)acetyl)-9-azabicyclo[3.3.1]nonane-3-carboxylic acid] reads at most 500 nM; that for `C[C@H]1CC[C@@H](Oc2ccc3cc(C(C(=O)O)N4C5CCCC4CCC5)ccc3c2C(F)(F)F)CC1` (stereo partly drawn) [Example 109, 2-(9-Azabicyclo[3.3.1]nonan-9-yl)-2-(6-((cis-4-methylcyclohexyl)oxy)-5-(trifluoromethyl)naphthalen-2-yl)acetic acid], at most 250 nM. With `CC[C@H]1CC[C@@H](Oc2ccc3cc(CN4C5CCCC4CC(C(=O)O)C5)ccc3c2Cl)CC1` (stereo partly drawn) [Example 110, 9-((5-Chloro-6-((cis-4-ethylcyclohexyl)oxy)naphthalen-2-yl)methyl)-9-azabicyclo[3.3.1]nonane-3-carboxylic acid], the IC50 was at most 100 nM. The value for `O=C(O)C1CC2CCCC(C1)N2Cc1ccc2c(Cl)c(O[C@H]3CC[C@@H](C(F)(F)F)CC3)ccc2c1` (stereo partly drawn) [Example 111, 9-((5-Chloro-6-((cis-4-(trifluoromethyl)cyclohexyl)oxy)naphthalen-2-yl)methyl)-9-azabicyclo[3.3.1]nonane-3-carboxylic acid] was at most 250 nM; that for `O=C(O)C12CCC(NCc3ccc4c(C(F)(F)F)c(OC5CCC(C(F)(F)F)CC5)ccc4c3)(CC1)CC2` (centres unmarked) [Example 144, 3-(4-{[5-trifluoromethyl-6-(4-trifluoromethyl-cyclohexyloxy)-naphthalen-2-ylmethyl]-amino}-bicyclo[2.2.2]oct-1-yl)-carboxylic acid] was at most 500 nM; that for `O=C(O)C1CC2(C1)CN(Cc1ccc3c(C(F)(F)F)c(O[C@H]4CC[C@@H](C(F)(F)F)CC4)ccc3c1)C2` [Example 146, 2-((5-(trifluoromethyl)-6-((cis-4-(trifluoromethyl)cyclohexyl)oxy)naphthalen-2-yl)methyl)-2-azaspiro[3.3]heptane-6-carboxylic acid] was at most 250 nM. The value for `O=C(O)C1CC2CN(Cc3ccc4c(C(F)(F)F)c(OC5CCC(C(F)(F)F)CC5)ccc4c3)CC2C1` (centres unmarked) [Example 154, 3-(5-trifluoromethyl-6-(4-trifluoromethyl-cyclohexyloxy)-naphthalen-2-ylmethyl)-3-azabicyclo[3.3.0]octane-7-carboxylic acid] was at most 250 nM; that for `O=C(O)C1CC2CCC(C1)N2C(=O)c1ccc2c(Cl)c(O[C@H]3CC[C@@H](C(F)(F)F)CC3)ccc2c1` (stereo partly drawn) [Example 186, 8-(5-chloro-6-((cis-4-(trifluoromethyl)cyclohexyl)oxy)-2-naphthoyl)-8-azabicyclo[3.2.1]octane-3-carboxylic acid] was at most 250 nM; that for `C[C@H]1CC[C@@H](Oc2ccc3cc(CN4C5CCC4CC(C(=O)O)C5)ccc3c2C#N)CC1` (stereo partly drawn) [Example 188, 8-((5-cyano-6-((cis-4-methylcyclohexyl)oxy)naphthalen-2-yl)methyl)-8-azabicyclo[3.2.1]octane-3-carboxylic acid] was at most 500 nM. Molecule `CC(c1ccc2c(C#N)c(O[C@H]3CC[C@@H](C)CC3)ccc2c1)N1C2CCC1CC(C(=O)O)C2` (stereo partly drawn) [Example 189, 8-(1-(5-cyano-6-((cis-4-methylcyclohexyl)oxy)naphthalen-2-yl)ethyl)-8-azabicyclo[3.2.1]octane-3-carboxylic acid] yielded an IC50 of at most 250 nM. `O=C(O)C1CC2CCC(C1)N2C(=O)c1ccc2c(C(F)(F)F)c(N[C@H]3CC[C@@H](C(F)(F)F)CC3)ccc2c1` (stereo partly drawn) [Example 190, 8-(5-(trifluoromethyl)-6-((cis-4-(trifluoromethyl)cyclohexyl)amino)-2-naphthoyl)-8-azabicyclo[3.2.1]octane-3-carboxylic acid] gave a half-maximal inhibitory concentration (IC50) of at most 100 nM. The value for `CC(C)(C)[C@H]1CC[C@H](Nc2ncc3cc(C(=O)N4C5CCCC4CC(C(=O)O)C5)ccc3n2)CC1` (stereo partly drawn) [Example 191, 9-(2-((trans-4-(tert-butyl)cyclohexyl)amino)quinazoline-6-carbonyl)-9-azabicyclo[3.3.1]nonane-3-carboxylic acid] was at most 100 nM.

For the molecule `CC(C)(C)[C@H]1CC[C@H](Nc2cc3ccc(C(=O)N4C5CCC4CC(C(=O)O)C5)cc3cn2)CC1` (stereo partly drawn) [Example 194, 8-(3-((trans-4-(tert-butyl)cyclohexyl)amino)isoquinoline-7-carbonyl)-8-azabicyclo[3.2.1]octane-3-carboxylic acid], the IC50 is at most 100 nM. The value for `O=C(O)C1CC2CCCC(C1)N2Cc1cc2ccc(O[C@H]3CC[C@@H](C(F)(F)F)CC3)c(C(F)(F)F)c2cn1` (stereo partly drawn) [Example 197, 9-((8-(trifluoromethyl)-7-((cis-4-(trifluoromethyl)cyclohexyl)oxy)isoquinolin-3-yl)methyl)-9-azabicyclo[3.3.1]nonane-3-carboxylic acid] was at most 500 nM; that for `CC[C@H]1CC[C@@H](Oc2ccc3nc(NC4C5CCCC4CC(C(=O)O)C5)ccc3c2C(F)(F)F)CC1` (stereo partly drawn) [Example 198, 9-((6-((cis-4-ethylcyclohexyl)oxy)-5-(trifluoromethyl)quinolin-2-yl)amino)bicyclo[3.3.1]nonane-3-carboxylic acid] was at most 100 nM; that for `CC[C@H]1CC[C@@H](Oc2ccc3cc(CN4C5CCCC4CC(C(=O)O)C5)ccc3c2C#N)CC1` (stereo partly drawn) [Example 199, 9-((5-cyano-6-((cis-4-ethylcyclohexyl)oxy)naphthalen-2-yl)methyl)-9-azabicyclo[3.3.1]nonane-3-carboxylic acid] was at most 100 nM.
